Laboratory results published in patent US11077214B2, “Multimodal CT/optical agents” (University Health Network, priority 2013, dated 2021).

Test: In vitro photostability of ICG fluorescence at room temperature
Type: physicochemical
Details: 3 days at room temperature
Description: The size of the liposome samples was measured using dynamic light scattering (DLS) (90Plus, Brookhaven, Holtsville, N.Y.). The iodine and ICG concentrations were determined using an absorbance assay at a wavelength of 245 nm for iodine and 785 nm for ICG (Cary 50 UV/VIS Spectrophotometer, Varian Inc., Palo Alto, Calif.). The lipid components of the liposome sample was analyzed using ultra performance liquid chromatography (UPLC, ACQUITY, Waters, Milford, Mass.) equipped with an evaporative light scattering detector (ELSD). The in vitro fluorescence measurements were performed using a 2D fluorescence imager (excitation/emission: 735/820 nm, CRI Maestro, Perkin Elmer, Waltham, Mass.).
Free ICG diluted in water, a 1:10 ethanol/water mixture and a 0.5:10 iohexol/water mixture yielded only 8±2%, 3±1%, 7±2% of its original fluorescence, respectively. […] The photostability of the encapsulated ICG was investigated by incubating the liposome samples and the free ICG solutions (at 7 physiologically relevant concentrations ranging from 0.5 to 2.5 μg/mL) at room temperature over a 21-day period.

CC1(C)C(/C=C/C=C/C=C/C=C2\N(CCCCS(=O)(=O)O)c3ccc4ccccc4c3C2(C)C)=[N+](CCCCS(=O)(=O)[O-])c2ccc3ccccc3c21 [Free ICG, indocyanine green]
retained original fluorescence signal (diluted in 0.5:10 iohexol/water mixture): 7±2%
retained original fluorescence signal (diluted in 1:10 ethanol/water mixture): 3±1%
retained original fluorescence signal (diluted in water): 8±2%
